In patent EP0099122A2, “Compositions comprising pepstatin and an histamine H2-receptor antagonist having an enhanced antiulcer activity” (Bristol-Myers Company, priority 1982, dated 1984):
Entries after “also recorded” stand apart in the source; their conditions may differ. Square brackets hold non-standard residues; d marks the D form. Peptide text beside a SMILES is read from it. * marks the point of attachment. Sta = CC(C)C[C@H](N)[C@@H](O)CC(=O)O; Isovaleryl = CC(C)CC(=O)*

Assays:
[1] = system: pylorus ligated rat; experiment: Pylorus ligated (Shay) rat; assay type: in vivo; conditions: 20 mg/kg po, 18 hour pylorus ligated rat, previous studies of the applicant
Method: The role of the proteolytic enzyme, pepsin, in the etiology of ulceration is not completely understood. […] It is also possible that pepsin is entirely responsible for the erosions and that the acid produces pain and retards healing. • 1) Umezawa, H. et al., in J. Antibiotics, 23, 259-262 (1970), disclose the pentapeptide, pepstatin, which has the structure [drawing 4] and which is a specific complexing agent for the enzyme pepsin. […] Pepstatin was administered in 100 mg doses, given seven aimes a day, this dosage being sufficient to inhibit the peptic activity of gastric juice for 18 hours a day. […] J. Gastroent., 14, 929-932 (1979), report the results of a double-blind randomized clinical trial of pepstatin versus placebo in patients having gastric ulcer. Pepstatin was administered in 100 mg doses seven times a day. […] When the two agents were given together, significant ulcer reduction was found after only one-half day of predosing. Carbenoxolone is not an antisecretory or anti-pepsin agent, but acts by stimulating gastric mucus synthesis. • 6) Dajani, E. Z. et al., in J. Pharmacol. Exp. Ther., 210, 373-377 (1979), disclose that, in stress ulceration tests in rats, a combination of cimetidine and propantheline bromide produced synergistic antiulcer activity and that a combination of cimetidine and thiopropazate hydrochloride produced additive antiulcer activity. […]

[2] = all animal species studied; cited from earlier work
[3] = system: gastric peptic activity; conditions: patients with ulcer dyspepsia, cited from earlier work
[4] = cited from earlier work
[5] = system: pepsin; conditions: 100 mg doses seven times a day, ulcer patients; cited from earlier work
[6] = system: pylorus ligated rat; conditions: pylorus ligated (Shay) rat, Umezawa et al.; cited from earlier work
[7] = system: duodenal ulcer; conditions: 100 mg doses seven times a day versus placebo; cited from earlier work
[8] = system: gastric ulcer; conditions: 100 mg doses seven times a day versus placebo; cited from earlier work
[9] = system: pepsin activity in the gastric juice of swine; conditions: added to the feed at >50 ppm; cited from earlier work

CC(C)CC(=O)N[C@H](C(=O)N[C@H](C(=O)N[C@@H](CC(C)C)[C@@H](O)CC(=O)N[C@@H](C)C(=O)N[C@@H](CC(C)C)[C@@H](O)CC(=O)O)C(C)C)C(C)C [Pepstatin, pepstatin] (Isovaleryl-VV[Sta]A[Sta]-OH)
pepsin activity [1]: completely inhibited pepsin activity
ulcer formation [1]: antagonized ulcer formation
LD50 [2]: exceeded 3000 mg/kg
side effects ([3]; daily oral doses of 700 mg for up to three months): no side effects were observed
gastric acidity [3]: has no effect on the gastric acidity
gastric peptic activity [3]: inhibits gastric peptic activity
excreted in the feces ([4]; oral administration, animal studies, within 72 hours): more than 90%
absorption upon oral administration ([4]; oral): essentially unabsorbed; also recorded: only poorly absorbed
time for which pepsin activity was inhibited [5]: 18 hours a day
formation of stomach ulcers [6]: prevent the formation of stomach ulcers
healing or symptomatology of duodenal ulcer [7]: no significant difference between pepstatin and placebo
healing or symptomatology of gastric ulcer [8]: not able to detect any influence of pepstatin
occurrence of ulcers [9]: prevented the occurrence of ulcers
pepsin activity in the gastric juice [9]: inhibited pepsin activity in the gastric juice of swine
